# Measured values reported in patent US8252768B2, “Designer therapy of pancreatic tumors” (University of Miami, priority 2006, dated 2012).
# Where two headings read alike, the source gives them in different places. Marks after values point to notes of the source that are not given here.
# Assays:
# PC-3 cells [1] = assay: Radiosensitization of cells in culture (Cobalt 60, clonogenic survival); assay type: cell-based, human; conditions: for effect of tetrahydrouridine (H4U) on radiosensitization (in words) / effect of thymidine on radiosensitization (in words): cells in culture
# Description: (§1) Toxicity and Radiation Studies: The methods using clonogenic assays described by Perez and Greer (Int. J. Rad. Oncology: Biology, Physics 12, 1523-1527, 1986—incorporated herein by reference in its entirety) were followed.
# Irradiation of Cells in Culture: 2×10^5 cells were plated in 25 cm^2 flasks and grown for 18 hr at 37° C. in a humidified 5% CO2 atmosphere. The medium was then removed and replaced with medium containing the appropriate drug concentrations and incubated for 72 hrs then removed and the cell monolayers were rinsed twice with PBS. The flasks were then filled with 50 ml of radiation medium (3 parts RPMI 1640 and 7 parts PBS plus antibiotics and glutamine). The cells were then irradiated using a Cobalt 60 irradiator. The cell monolayers were placed 35 cm away from the source and irradiated for appropriate times according to the dose rate. The dose rate was calculated, at this distance, using ionization chambers. Attenuation factors due to the polystyrene flask (0.9923) and the medium (H2O=0.8715) were considered in calculating the exposure period.
# After irradiation the cell monolayers were washed again, replenished with growth media, and incubated for 1½ hours. The cell monolayers were then trypsinized and the cells serially diluted, appropriate dilutions were then plated in 60 mm dishes and incubated for 7-9 days at 37° C. and CO2. At the end of this period the cells were stained with crystal violet and the colony forming ability determined by considering 25 or more normal cells as a viable colony. The viabilities were determined and the appropriate survival curves derived. All conditions were done in duplicate using two flasks treated under identical conditions.
# cytidine deaminase (CD) = biological target: T1, cytidine deaminase (CD) (Homo sapiens, UniProt P32320); assay: Competition assay for substrates of cytidine deaminase, crude extracts of PC-3 cells; assay type: biochemical; conditions: for substrate for cytidine deaminase (in words): competition studies, human tumor cell extracts; for % Inhibition (CD) / inhibition at 250 µM: competitor 250 μM; for % Inhibition (CD) / inhibition / inhibition at 250 µM: ratio 10, PC-3 extracts
# T1 construct: Crude extracts of PC-3 cells in culture were prepared as described above; endogenous in cells; host or cells: PC-3 cells (crude extract supernatant)
# T1 sequence (P32320 whole entry): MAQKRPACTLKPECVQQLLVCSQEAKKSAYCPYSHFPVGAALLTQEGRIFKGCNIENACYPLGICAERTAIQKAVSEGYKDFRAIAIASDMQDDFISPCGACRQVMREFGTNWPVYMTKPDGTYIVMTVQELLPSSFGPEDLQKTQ
# Description: The crude enzyme extract (the supernatant of a 10 minute 14,000×g centrifugation) was then added. When cytidine was used as substrate, assays were conducted with benzacyclouridine to inhibit uridine phosphorylases. […] After 0, 15, and 30 minutes, the reaction was stopped and denatured protein removed as above for dC Kinase. […] Aliquots were then spotted on PE cellulose TLC sheets and the reactants separated with a solvent system composed of isopropanol:HCl:H2O (170:41:39). […] The nucleosides were visualized under U.V. light and the spots cut out and counted. […] Enzyme activity was expressed as nmole formed in 30 min/mg/protein.
# Competition assays to determine Substrate Specificity: Crude extracts of PC-3 cells in culture were prepared as described above. Two concentrations of crude extract were utilized for the studies as determined from the analysis of protein.
# The assays were run for 0, 15, and 30 minutes.
# PC-3 cells [2] = assay: Cytotoxicity (clonogenic) assay, 72 h drug exposure; assay type: cell-based, human
# Description: as §1
# Cytotoxicity Assays: 5×10^5 cells were plated in 60 mm tissue culture dishes in 5 mls of the optimal growth media for the particular cell line in an humidified 95% air-5% CO2 atmosphere. The plates were incubated for 18-20 hours to allow for attachment and log-phase growth to begin. At the end of this period the growth medium was aspirated and replaced with […]. Four times (4×) concentrated solutions were prepared and then 1 ml was added to the plates; and growth media were then added to a total volume of […]. The plates were then incubated for 72 hours and the cells harvested by trypsinization. The cells were then serially diluted in growth medium replated into 60 mm dishes and incubated for 6 to 9 days depending on the cell line. After this incubation period, the media was aspirated and the colonies were washed twice with a PBS solution. The colonies were then stained with a 0.2% crystal violet-20% ethanol solution for 5 min. the stain was removed, the colonies were washed and air dried. A viable colony was one consisting of 25 or more normal appearing cells and was considered to have arisen from a single cell. The colonies were counted under a dissecting microscope. Two to three dilutions for every condition were plated. Dishes containing 30-300 colonies were used in the calculation and all conditions were done in duplicate.
# uridine/cytidine kinase = assay: Competition assay for substrates of uridine/cytidine kinase, crude extracts of T24 cells; assay type: biochemical, human
# Description: 2 mM dithiothreitol (DTT) and 0.5 mM phenylmethylsulfanyl fluoride were added just before extraction. The tissue sample was homogenized in a Dounce glass homogenizer and then sonicated for 3 five-second pulses in a Branson Sonifier with a micro-tip at 25 KHz to disrupt the cells. During homogenization and sonication the extract was kept cold throughout the procedures. The tissue extract was then centrifuged at 14,000×g at 4° C. for 15 min., and the supernatant (the crude enzyme extract) was removed. The supernatant was sheared 20 times on ice utilizing a 1 cc syringe with a 27 G½ needle to reduce viscosity. […] 2 mM DTT and 340 μM H4U were added just before the assay. Finally, to the reaction mixture, 5 μl 200 mM creatine phosphate and creatine phosphokinase (0.5 unit/μl) was added to 150 μl of the section mixture. […] H2O bath for 1 minute before 20 μl of the crude enzyme extract was added to initiate the reaction. […] At 0, 30 and 60 minutes the reaction mixture, divided in separate tubes, was heated in a boiling water bath for 2 minutes to terminate the reaction. Denatured protein was then removed by centrifugation of the sample for 2 minutes at 14,000×g. The amount of nucleotide formed was determined by spotting 20 μl aliquots of the reaction mixture onto DE-81 2.2 cm Whatman filter discs. After air drying, the unphosphorylated substrate nucleoside was removed by washing twice for 10 min. in 20 mM ammonium formate and twice for 5 min. in deionized H2O with gentle stirring. A control, lacking the crude enzyme extract was included with each determination. The washed papers were dried under a heat lamp and then placed into individual scintillation vials, eluted for 30 min. in 1 ml of 0.1M HCl-0.1M KCL and then vortexed in 5 ml of scintillation fluid and counted. Enzyme activity was expressed as pmoles/min/mg protein.
# When uridine was utilized as substrate, benzacyclouridine was added to prevent the catabolism of the substrate by uridine phosphorylase and tetrahydrouridine was omitted.
# [3] = biological target: deoxycytidine kinase (dCK) (Homo sapiens, UniProt P27707); assay: Competition assay for substrates of deoxycytidine kinase, crude extracts of PC-3 cells; conditions: for inhibition at 250 µM: read-out: % Inhibition (dCK)
# Chain of deoxycytidine kinase (dCK) (P27707 whole entry): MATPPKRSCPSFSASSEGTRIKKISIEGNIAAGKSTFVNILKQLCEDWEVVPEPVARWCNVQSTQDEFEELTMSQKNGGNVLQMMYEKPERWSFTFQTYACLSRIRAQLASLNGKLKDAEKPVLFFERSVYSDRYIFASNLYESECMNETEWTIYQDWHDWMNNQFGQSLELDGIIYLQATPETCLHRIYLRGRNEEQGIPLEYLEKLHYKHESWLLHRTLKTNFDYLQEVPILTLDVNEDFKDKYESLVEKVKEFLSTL
# [4] = substrate 3H-Deoxycytidine 25 μM
# [5] = competitor 100 μM, substrate 3H-Cytidine 8.3 μM
# [6] = competitor 100 μM, substrate 3H-Uridine 16.7 μM
# [7] = competitor 250 μM, substrate 3H-Cytidine 8.3 μM
# [8] = competitor 250 μM, substrate 3H-Uridine 16.7 μM
# [9] = competitor 500 μM, substrate 3H-Cytidine 8.3 μM
# [10] = competitor 500 μM, substrate 3H-Uridine 16.7 μM
# [11] = competitor 750 μM, substrate 3H-Uridine 16.7 μM
compound,measurement,setting,value
"CNc1nc(=O)n([C@H]2C[C@H](O)[C@@H](CO)O2)cc1Cl [4-N,methylamino CldC, 4-N, methylamino-5-Chloro-2′-deoxycytidine]",radiosensitization of PC-3 cells (in words),PC-3 cells [1],potent radiosensitizing effect
same,effect of tetrahydrouridine (H4U) on radiosensitization (in words),PC-3 cells [1],antagonism by tetrahydrouridine
same,effect of thymidine on radiosensitization (in words),PC-3 cells [1],antagonized by thymidine
same,substrate for cytidine deaminase (in words),cytidine deaminase (CD),reasonably good substrate
same,% Inhibition (CD),cytidine deaminase (CD); substrate 3H-Cytidine 25 μM,13%
same,% Inhibition (CD),cytidine deaminase (CD); [4],29%
"CNc1nc(=O)n([C@H]2C[C@H](O)[C@@H](CO)O2)cc1F [4-N,methylamino FdC, 4-N, methylamino-5-Fluoro-2′-deoxycytidine]",substrate for cytidine deaminase (in words),"cytidine deaminase (CD); listed as 4-N, methylamino FdC",poor substrate
same,substrate for cytidine deaminase (in words),"cytidine deaminase (CD); listed as 4-N, methylamino-5-Fluoro-2′-deoxycytidine",moderate to poor substrate
same,% Inhibition (CD),cytidine deaminase (CD); substrate 3H-Cytidine 25 μM,0%
same,% Inhibition (CD),cytidine deaminase (CD); [4],4.0%
same,effect of thymidine on cytotoxicity (in words),PC-3 cells [2]; PC-3 cells,antagonized by thymidine
same,effect of tetrahydrouridine (H4U) on cytotoxicity / viability (in words),"PC-3 cells [2]; PC-3 cells, listed as 4-N, methylamino FdC",antagonized by tetrahydrouridine
same,effect of tetrahydrouridine (H4U) on cytotoxicity / viability (in words),"PC-3 cells [2]; PC-3 cells, listed as 4N, methylFdC",prevented by tetrahydrouridine
O=c1[nH]c(=O)n(COCCO)cc1Cc1ccccc1 [5-Benzacyclouridine],% Inhibitation (U/C kinase),"uridine/cytidine kinase; competitor 1500 μM, substrate 3H-Cytidine 8.3 μM",0%
same,% Inhibitation (U/C kinase),"uridine/cytidine kinase; competitor 1500 μM, substrate 3H-Uridine 16.7 μM",7.0%
"Nc1nc(=O)n([C@H]2C[C@H](O)[C@@H](CO)O2)cc1Br [5-BrdC, 5-Bromo-2′-deoxycytidine]",effect of thymidine on radiosensitization (in words),PC-3 cells [1],antagonized by thymidine
same,substrate for deoxycytidine kinase (in words),"[3]; competition studies, human tumor cell extracts",very poor substrates
same,inhibition at 250 µM,[3],0%
same,substrate for cytidine deaminase (in words),cytidine deaminase (CD),good substrates
same,inhibition,cytidine deaminase (CD); substrate 3H-Cytidine 25 μM,50%
Nc1nc(=O)n([C@@H]2O[C@H](CO)[C@@H](O)[C@H]2O)cc1Cl [5-Chlorocytidine],radiosensitization of PC-3 cells (in words),PC-3 cells [1],radiosensitization
same,effect of tetrahydrouridine (H4U) on radiosensitization (in words),PC-3 cells [1],decreases radiosensitization
same,substrate for U/C kinase of T24 cells (in words),uridine/cytidine kinase,moderate substrates
same,% Inhibitation (U/C kinase),uridine/cytidine kinase; [5],10%
same,% Inhibitation (U/C kinase),uridine/cytidine kinase; [6],2%
same,% Inhibitation (U/C kinase),uridine/cytidine kinase; [7],24%
same,% Inhibitation (U/C kinase),uridine/cytidine kinase; [8],23%
same,effect of tetrahydrouridine (H4U) on cytotoxicity / viability (in words),"PC-3 cells [2]; human, 72 h",H4U decreases viability
"Nc1nc(=O)n([C@H]2C[C@H](O)[C@@H](CO)O2)cc1Cl [5-Chlorodeoxycytidine, 5-chloro-2′-deoxycytidine, reference compound]",inhibition at 250 µM,[3],72%
same,% Inhibitation (U/C kinase),uridine/cytidine kinase; [8],0%
same,% Inhibitation (U/C kinase),uridine/cytidine kinase; [9],5.1%
same,inhibition at 250 µM,cytidine deaminase (CD); [4],42%
same,inhibition,cytidine deaminase (CD); substrate 3H-Cytidine 25 μM,80%
O=c1[nH]c(=O)n([C@H]2C[C@H](O)[C@@H](CO)O2)cc1Cl [5-Chlorodeoxyuridine],% Inhibitation (U/C kinase),"uridine/cytidine kinase; competitor 200 μM, substrate 3H-Cytidine 8.3 μM",7.0%
same,% Inhibitation (U/C kinase),uridine/cytidine kinase; [8],0%
Nc1nc(=O)n([C@@H]2O[C@H](CO)[C@@H](O)[C@H]2O)cc1F [5-Fluorocytidine],% Inhibitation (U/C kinase),uridine/cytidine kinase; [6],34%
same,% Inhibitation (U/C kinase),uridine/cytidine kinase; [7],51%
same,% Inhibitation (U/C kinase),uridine/cytidine kinase; [8],58%
same,% Inhibitation (U/C kinase),uridine/cytidine kinase; [9],66%
"Nc1nc(=O)n([C@H]2C[C@H](O)[C@@H](CO)O2)cc1F [5-Fluorodeoxycytidine, reference compound]",inhibition at 250 µM,[3],90%
same,% Inhibitation (U/C kinase),uridine/cytidine kinase; [9],4.8%
same,inhibition at 250 µM,cytidine deaminase (CD); [4],50%
same,inhibition,cytidine deaminase (CD); substrate 3H-Cytidine 25 μM,83%
O=c1[nH]c(=O)n([C@@H]2O[C@H](CO)[C@@H](O)[C@H]2O)cc1F [5-Fluorouridine],% Inhibitation (U/C kinase),uridine/cytidine kinase; [6],56%
same,% Inhibitation (U/C kinase),uridine/cytidine kinase; [8],80%
"Cc1cn([C@H]2C[C@H](O)[C@@H](CO)O2)c(=O)nc1N [5-methyldC, reference compound]",% Inhibition (CD),cytidine deaminase (CD); substrate 3H-Cytidine 25 μM,30%
Nc1ccn([C@@H]2O[C@H](CO)[C@@H](O)[C@H]2O)c(=O)n1 [Cytidine],% Inhibitation (U/C kinase),uridine/cytidine kinase; [5],66%
same,% Inhibitation (U/C kinase),uridine/cytidine kinase; [6],57%
same,% Inhibitation (U/C kinase),uridine/cytidine kinase; [7],85%
same,% Inhibitation (U/C kinase),uridine/cytidine kinase; [8],89%
same,% Inhibitation (U/C kinase),uridine/cytidine kinase; [9],88%
same,% Inhibitation (U/C kinase),uridine/cytidine kinase; [10],90%
same,% Inhibitation (U/C kinase),uridine/cytidine kinase; [11],96%
Nc1ccn([C@H]2C[C@H](O)[C@@H](CO)O2)c(=O)n1 [Deoxycytidine],% Inhibitation (U/C kinase),uridine/cytidine kinase; [7],10%
same,% Inhibitation (U/C kinase),uridine/cytidine kinase; [8],0%
same,% Inhibitation (U/C kinase),uridine/cytidine kinase; [9],20%
same,inhibition at 250 µM,cytidine deaminase (CD); [4],66%
O=c1ccn([C@H]2C[C@H](O)[C@@H](CO)O2)c(=O)[nH]1 [Deoxyuridine],% Inhibitation (U/C kinase),uridine/cytidine kinase; [8],0** %
"O=c1[nH]c(=O)n([C@H]2C[C@H](O)[C@@H](CO)O2)cc1I [IdU, 5-Iododeoxyuridine, reference compound]",effect of tetrahydrouridine (H4U) on radiosensitization (in words),PC-3 cells [1],relative lack of the effect of tetrahydrouridine
same,effect of tetrahydrouridine (H4U) on cytotoxicity / viability (in words),PC-3 cells [2],relative lack of the effect of tetrahydrouridine
O=c1ccn([C@@H]2O[C@H](CO)[C@@H](O)[C@H]2O)c(=O)[nH]1 [Uridine],inhibition at 250 µM,[3],0%
same,% Inhibitation (U/C kinase),uridine/cytidine kinase; [5],59%
same,% Inhibitation (U/C kinase),uridine/cytidine kinase; [6],62%
same,% Inhibitation (U/C kinase),uridine/cytidine kinase; [7],75%
same,% Inhibitation (U/C kinase),uridine/cytidine kinase; [8],80%
same,% Inhibitation (U/C kinase),uridine/cytidine kinase; [9],80%
same,% Inhibitation (U/C kinase),uridine/cytidine kinase; [10],87%
same,% Inhibitation (U/C kinase),"uridine/cytidine kinase; competitor 750 μM, substrate 3H-Cytidine 8.3 μM",86%
same,% Inhibitation (U/C kinase),uridine/cytidine kinase; [11],90%
same,inhibition at 250 µM,cytidine deaminase (CD); [4],2%
